Laboratory results published in patent publication US20220281825A1 (priority 2016, published 2022).

Tests used:
[1] = guinea pig, 1 h, pH 7.4
in vitro = settings: African green monkey
LASV = assay: organism not typed; format: cell-based, Lassa (LASV); settings: for EC50: 120 h, read-out: LASV EC50 uM
[2] = guinea pig, in vivo, 10 mg/kg
LCMV = assay: microbe, parasite or virus in culture; format: cell-based, lymphocytic choriomeningitis virus (LCMV); settings: for EC90: Mammarenavirus choriomeningitidis, read-out: LCMV EC90 uM
TCRV-p = assay: organism not typed; format: cell-based; settings: Vero, 24 h, read-out: TCRV-p EC50 (nM)
VSV-p = assay: microbe, parasite or virus in culture; format: cell-based; settings: Vesicular stomatitis virus, Vero, 24 h, read-out: VSV-p EC50 (nM)
in vivo = settings: guinea pig, po, 10 mg/kg
LASV-p = assay: organism not typed; format: cell-based, Lassa (LASV); settings: Vero, 24 h, read-out: LASV-p EC50 (nM)
JUNV = assay: organism not typed; format: cell-based, Junin (JUNV); settings: for EC50: 120 h, read-out: JUNV EC50 uM
[3] = system: native replicating Tacaribe (TCRV) virus; assay: microbe, parasite or virus in culture; format: cell-based; settings: for EC50: Mammarenavirus tacaribeense, Vero, 120 h, read-out: TCRV EC50 uM
[4] = 1 h, pH 7.4
GTOV-p = assay: organism not typed; format: cell-based, Guanarito (GTOV); settings: Vero, 24 h, read-out: GTOV-p EC50 (nM)
JUNV-p = assay: organism not typed; format: cell-based, Junin (JUNV); settings: Vero, 24 h, read-out: JUNV-p EC50 (nM)
[5] = 1 h, pH 7.4; remark: listed apart in the source
MACV-p = assay: organism not typed; format: cell-based, Machupo (MACV); settings: Vero, 24 h, read-out: MACV-p EC50 (nM)
[6] = 1 h, pH 7.4; remark: listed apart in the source
[7] = 1 h, pH 7.4; remark: listed apart in the source
hERG channel = hERG channel (Homo sapiens, UniProt Q12809); settings: pH 7.4
[8] = 1 h, pH 7.4; remark: listed apart in the source

hERG channel, sequence (Q12809 whole entry): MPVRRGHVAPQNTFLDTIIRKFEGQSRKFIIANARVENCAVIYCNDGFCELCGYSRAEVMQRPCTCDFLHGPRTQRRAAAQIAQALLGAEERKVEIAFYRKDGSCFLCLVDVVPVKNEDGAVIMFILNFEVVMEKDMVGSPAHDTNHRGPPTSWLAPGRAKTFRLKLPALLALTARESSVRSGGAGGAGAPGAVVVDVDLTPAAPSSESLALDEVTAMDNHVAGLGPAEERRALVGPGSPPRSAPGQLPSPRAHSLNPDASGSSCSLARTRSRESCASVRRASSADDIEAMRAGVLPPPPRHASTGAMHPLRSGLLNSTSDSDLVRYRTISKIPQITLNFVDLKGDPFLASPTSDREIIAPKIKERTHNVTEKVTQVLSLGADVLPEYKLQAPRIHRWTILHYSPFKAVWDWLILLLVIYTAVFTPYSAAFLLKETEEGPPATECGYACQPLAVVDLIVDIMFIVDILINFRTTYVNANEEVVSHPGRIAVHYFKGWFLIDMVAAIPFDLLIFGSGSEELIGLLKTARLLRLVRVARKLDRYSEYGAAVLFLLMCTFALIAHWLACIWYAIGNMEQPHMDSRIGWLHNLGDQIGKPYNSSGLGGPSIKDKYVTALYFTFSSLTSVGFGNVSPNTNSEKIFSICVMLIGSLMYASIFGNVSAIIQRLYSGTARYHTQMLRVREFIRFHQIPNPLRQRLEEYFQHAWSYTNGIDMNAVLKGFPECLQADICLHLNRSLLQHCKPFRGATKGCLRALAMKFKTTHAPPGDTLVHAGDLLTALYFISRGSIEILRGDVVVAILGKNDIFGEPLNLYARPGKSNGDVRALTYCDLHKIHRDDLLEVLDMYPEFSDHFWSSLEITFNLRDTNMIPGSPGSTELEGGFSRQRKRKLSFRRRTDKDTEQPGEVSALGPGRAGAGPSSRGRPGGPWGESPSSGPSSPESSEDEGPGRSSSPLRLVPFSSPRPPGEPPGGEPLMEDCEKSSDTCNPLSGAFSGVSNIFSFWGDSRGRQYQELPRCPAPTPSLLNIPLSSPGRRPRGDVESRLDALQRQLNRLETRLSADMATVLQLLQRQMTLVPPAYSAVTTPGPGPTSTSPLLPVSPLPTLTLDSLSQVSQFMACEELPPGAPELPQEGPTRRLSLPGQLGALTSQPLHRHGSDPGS

Row | SMILES | Percent parent compound remaining at 60 minutes in liver microsomes, Guinea [1] [%] | CC50 (in vitro) [nM] | LASV SI (LASV) | EC50 (LASV) [µM] | LCMV SI90 (LCMV) | EC90 (LCMV) [µM] | EC50 (TCRV-p) [nM] | EC50 (LASV-p) [nM] | JUNV SI (JUNV) | EC50 (JUNV) [µM] | TCRV SI50 [3] | EC50 [3] [µM] | Percent parent compound remaining at 60 minutes in liver microsomes, Human [4] [%] | EC50 (GTOV-p) [nM] | EC50 (JUNV-p) [nM] | Percent parent compound remaining at 60 minutes in liver microsomes, Monkey [5] [%] | EC50 (MACV-p) [nM] | Percent parent compound remaining at 60 minutes in liver microsomes, Rat [6] [%] | Percent parent compound remaining at 60 minutes in liver microsomes, Mouse [7] [%] | hERG % Inhibition (hERG channel) [%] | other results
1 | CC(C)Oc1ccc(-n2cnc3ccc(-c4ccc(C(C)(C)O)cc4)cc32)cc1 [Example A17, 2-(4-{1-[4-(propan-2-yloxy)phenyl]-1H-1,3-benzodiazol-6-yl}phenyl)propan-2-ol] | 62 | 5810 | 249 | 0.06 | 12 | 0.71 | 0.6 | 1.1 | 82 | 0.115 | 609 | 0.023 | 69 | 0.52 | 0.2 | 7 | 0.2 | 86 | 44 | – | oral exposure [2]: demonstrated oral exposure; T ½ ([2]; po): 4 to 6 h; EC50 (VSV-p): > 1000 nM; Cmax (in vivo): 639 ng/mL; Tmax (in vivo): 1 h; half-life (in vivo): 4 to 6 h
2 | CC(C)Oc1ccc(-n2cnc3ccc(-c4ccc5[nH]ccc5c4)cc32)cc1 [Example A24, 6-(1H-indol-5-yl)-1-[4-(propan-2-yloxy)phenyl]-1H-1,3-benzodiazole] | 0 | 71300 | 527 | 0.06 | 18 | 0.56 | 15.9 | 0.91 | 53 | 0.56 | 7100 | 0.01 | 63 | 0.3 | 1.7 | – | 3.7 | 32 | – | – | –
3 | CC(C)Oc1ccc(-c2cnc3ccc(-c4ccc(C(C)(C)O)cc4)cn23)cc1 [Example C1, 2-(4-{3-[4-(propan-2-yloxy)phenyl]imidazo[1,2-a]pyridin-6-yl}phenyl)propan-2-ol] | 42 | 7520 | 921 | 0.025 | 37 | 0.82 | 1.45 | 0.59 | 352 | 0.055 | 2500 | 0.003 | 76 | 0.08 | 0.82 | 16 | 0.7 | 77 | 22 | 55 | EC50 (VSV-p): > 1000 nM
4 | CC(C)Oc1ccc(-c2ccc3ncc(-c4ccc(OC(C)C)cc4)n3c2)cc1 [Example C2, 3,6-bis[4-(propan-2-yloxy)phenyl]imidazo[1,2-a]pyridine] | – | – | – | – | – | – | – | – | – | – | – | – | – | – | – | – | – | – | – | 89 | oral exposure [2]: demonstrated oral exposure; Cmax (in vivo): 156 ng/mL; Tmax (in vivo): 1 h
5 | Cc1c(-c2ccc(OC(C)C)cc2)ccc2ncc(-c3ccc(OC(C)C)cc3)n12 [Example C51, 5-methyl-3,6-bis[4-(propan-2-yloxy)phenyl]imidazo[1,2-a]pyridine] | 95 | 4190 | – | – | – | – | 0.37 | 0.31 | – | – | – | – | 100 | 0.21 | 0.15 | 21 | 0.13 | 75 | 92 | 49 | Percent parent compound remaining at 60 minutes in liver microsomes, Dog [8]: 82%
